From patent publication US9062050B2, “Inhibitor of JAK1 and JAK2” (Eli Lilly and Company, priority 2012, dated 2015) come the findings set out here.

Assay [1] has as its system phosphorylation of STAT3. Nature of the assay: SUM-159-MSD-pSTAT3 cell-based assay. Conditions: SUM159; Sum-159 breast cancer cells, human IL-6 stimulated; read-out: IC50, inhibits the phosphorylation of STAT3. How it is done:
The SUM-159-MSD-pSTAT3 cell-based assay is used to examine the potency of compounds at blocking STAT3 phosphorylation in breast cancer cells. Sum-159 cells (Asterand) are grown and maintained in HAM's F-12 medium (Gibco 11765-054) with 5% FBS, insulin (5 microgram/mL) and hydrocortisone (1 μg/ml). Cells are collected, counted, plated at 4×10^4 cells/well in 96-well plates, and cultured for overnight at 37° C. with 5% CO2. Culture medium is then removed and replaced with F-12-medium containing either vehicle (DMSO) alone or 2× final concentrations of compounds across a range from 0-20 μM at 1:3 dilutions (10 concentration points). After incubation for five additional hours, medium is removed and cells are treated with 100 microliters of 2× human IL-6 (20 ng/mL diluted in F-12 complete medium) and incubated for an additional 20 minutes at 37° C. in 5% CO2. […] The 96-well plates are sealed and then mixed for 2 minutes on an orbital shaker at room temperature, and then immediately frozen at −80° C. overnight. pSTAT3 is detected with the use of the MA6000 MSD Whole Cell Lysate Kit for Phospho-STAT-3 (Tyr 705) (Meso Scale Diagnostics, #K150DID-2) as described above. Plates are read by using a MSD plate reader. Data are analyzed using Graph Pad program.

The target of assay [2] is JAK2 (Homo sapiens, UniProt O60674). The assay can be described thus: JAK2 EPO-TF1/pSTAT5 cell-based assay (Cellomics ArrayScan HCS). More on the design: endogenous in cells; host or cells: TF-1 (human erythroid leukemia) cells. Conditions: TF-1 cells, EPO at 1.6 U/mL, relative IC50, n=65; read-out: IC50, inhibits JAK2 (pSTAT5). The text has this: The JAK2 EPO-TF1/pSTAT5 cell-based assay mimics the constitutive activation of JAK2-STAT5 in erythroid progenitor cells, which drives the overproduction of red blood cells, a marker of polycythemia vera (PV). Therefore, the EPO-TF1/pSTAT5 cell-based assay enables the evaluation of the JAK2 cellular activity of JAK compounds in vitro.
JAK2, sequence (O60674 whole entry): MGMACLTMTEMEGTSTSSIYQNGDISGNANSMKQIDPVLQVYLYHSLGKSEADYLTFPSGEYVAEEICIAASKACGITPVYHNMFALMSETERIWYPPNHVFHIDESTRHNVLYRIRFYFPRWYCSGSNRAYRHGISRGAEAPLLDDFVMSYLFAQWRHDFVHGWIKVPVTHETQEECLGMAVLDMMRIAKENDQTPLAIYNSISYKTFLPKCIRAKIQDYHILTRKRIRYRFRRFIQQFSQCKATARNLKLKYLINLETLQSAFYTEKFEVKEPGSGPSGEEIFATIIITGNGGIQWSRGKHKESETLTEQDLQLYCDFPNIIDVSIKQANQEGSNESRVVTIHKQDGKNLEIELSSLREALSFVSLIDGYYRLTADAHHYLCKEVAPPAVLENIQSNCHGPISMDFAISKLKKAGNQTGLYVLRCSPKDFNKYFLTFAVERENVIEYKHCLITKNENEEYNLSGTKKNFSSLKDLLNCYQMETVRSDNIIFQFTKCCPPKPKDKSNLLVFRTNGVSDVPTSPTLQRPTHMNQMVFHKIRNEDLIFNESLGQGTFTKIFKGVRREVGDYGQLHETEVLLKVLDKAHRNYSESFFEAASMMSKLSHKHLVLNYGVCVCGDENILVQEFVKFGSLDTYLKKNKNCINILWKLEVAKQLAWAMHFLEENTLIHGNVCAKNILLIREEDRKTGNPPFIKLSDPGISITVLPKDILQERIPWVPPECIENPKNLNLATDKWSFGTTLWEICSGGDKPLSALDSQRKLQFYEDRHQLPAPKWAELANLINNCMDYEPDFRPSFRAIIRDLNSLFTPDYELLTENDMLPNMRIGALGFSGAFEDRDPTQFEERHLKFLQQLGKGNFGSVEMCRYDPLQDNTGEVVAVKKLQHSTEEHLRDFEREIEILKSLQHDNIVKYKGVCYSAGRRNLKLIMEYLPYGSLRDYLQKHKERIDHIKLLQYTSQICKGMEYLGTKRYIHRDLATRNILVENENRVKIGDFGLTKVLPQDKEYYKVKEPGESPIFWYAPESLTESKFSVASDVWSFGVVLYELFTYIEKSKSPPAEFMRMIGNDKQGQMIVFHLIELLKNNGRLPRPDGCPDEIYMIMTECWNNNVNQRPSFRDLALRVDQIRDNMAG
TF-1 (human erythroid leukemia) cells are maintained in RPMI 1640 (RPMI-1640 was developed by Moore et. al. at Roswell Park Memorial Institute. The formulation is based on the RPMI-1630 series of media utilizing a bicarbonate buffering system and alterations in the amounts of amino acids and vitamins.) with 10% fetal bovine serum (FBS), 0.075% sodium bicarbonate, 1 mM sodium pyruvate, 1× antibiotic/antimycotic (Invitrogen, Carlsbad, Calif.) and 0.45% glucose. The medium is supplemented with GM-CSF (granulocyte-macrophage colony-stimulating factor) at a final concentration of 2 ng/mL. Cells are kept at 37° C. with 5% CO2. […] TF-1 cells are counted and cells are collected to seed 2×10^7 cells per 96-well plate at a density of 2×10^5 cells per well. […]
To perform the assay, serum-starved cells are collected and washed once with unsupplemented RPMI 1640 medium. […] An aliquot of 200 μL of 1 to 10 dilution of Mouse anti-pSTAT5 (pY694) Alexa Fluor 647® in fluorescence activated cell sorting (FACS) buffer is added to the cells. […]

One may read the IC50 as the point on the concentration scale where inhibition reaches its midpoint. Consider `Cc1cc(Nc2ccc3ncn([C@@H]4CCc5ccc(F)cc54)c3n2)[nH]n1.Cl.Cl` [Example 1, 3-[(1R)-6-fluoro-2,3-dihydro-1H-inden-1-yl]-N-(3-methyl-1H-pyrazol-5-yl)-3H-imidazo[4,5-b]pyridin-5-amine dihydrochloride], for which the values for the IC50 in assay [1] and in assay [2] were 0.021 µM and 0.035 µM, respectively.
